Test results taken from ChEMBL document CHEMBL1152753, “BRACO19 analog dimers with improved inhibition of telomerase and hPot 1” (Bioorg Med Chem, 2009).
pEC50, pIC50: −log10 of the molar value. Activity calls are given as the source filed them. The rule behind the calls is not given here.

What was measured:
[1] = target: Telomerase reverse transcriptase (Homo sapiens, UniProt O14746); experiment: Inhibition of human telomerase assessed as unincorporated [alpha32P]dGTP
Homo sapiens [2] = species on record: Homo sapiens; experiment: Stabilization of human telomeric d[5'G3(T2AG3]-3' assessed as change in melting temperature at 25 uM
[3] = (§1) Inhibition of human G-quadruplex [TTAGGG]4 DNA templet extension assessed as increase in ligand-induced polymerase stop products by Taq DNA polymerase stop assay
[4] = target: T1, Protection of telomeres protein 1 (Homo sapiens, UniProt Q9NUX5); experiment: Inhibition of human 35S-labeled Pot1 binding to human telomeric DNA
T1 sequence (Q9NUX5 whole entry): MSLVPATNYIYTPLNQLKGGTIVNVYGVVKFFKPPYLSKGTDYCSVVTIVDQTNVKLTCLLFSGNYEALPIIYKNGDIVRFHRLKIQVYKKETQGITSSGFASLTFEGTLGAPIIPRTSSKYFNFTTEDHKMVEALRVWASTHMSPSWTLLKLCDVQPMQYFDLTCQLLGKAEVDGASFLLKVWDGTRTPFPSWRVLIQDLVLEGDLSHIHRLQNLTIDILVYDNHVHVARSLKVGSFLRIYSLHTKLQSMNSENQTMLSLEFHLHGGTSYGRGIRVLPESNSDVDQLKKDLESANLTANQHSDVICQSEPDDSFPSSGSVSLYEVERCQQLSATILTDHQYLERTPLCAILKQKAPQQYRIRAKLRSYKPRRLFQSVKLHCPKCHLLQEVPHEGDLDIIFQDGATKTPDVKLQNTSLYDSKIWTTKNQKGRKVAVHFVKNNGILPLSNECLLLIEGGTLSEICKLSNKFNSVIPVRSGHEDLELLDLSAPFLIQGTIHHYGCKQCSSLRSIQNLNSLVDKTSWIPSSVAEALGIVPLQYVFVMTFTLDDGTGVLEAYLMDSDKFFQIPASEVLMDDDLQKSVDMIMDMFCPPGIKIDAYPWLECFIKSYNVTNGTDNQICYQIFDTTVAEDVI

[5] = Inhibition of non G-quadruplex [TTAGAG]4 DNA templet extension assessed as ligand-induced polymerase stop products by Taq DNA polymerase stop assay
Homo sapiens [6] = species on record: Homo sapiens; experiment: Induction of G-quadruplex structure formation in human telomeric d[5'G3(T2AG3]-3' DNA assessed as major positive band at 290 nm at 1 mole ligand concentration by CD spectroscopy
Homo sapiens [7] = species on record: Homo sapiens; experiment: as §1
Homo sapiens [8] = species on record: Homo sapiens; experiment: Binding affinity to human telomeric d[5'G3(T2AG3]-3' DNA quadruplex assessed as major positive band at 292 nm at >1:1 drug to DNA ratio
Homo sapiens [9] = species on record: Homo sapiens; experiment: Binding affinity to human telomeric d[5'G3(T2AG3]-3' DNA quadruplex assessed as major positive band at 292 nm at 1:1 drug to DNA ratio
Homo sapiens [10] = species on record: Homo sapiens; experiment: Induction of G-quadruplex structure formation in human telomeric d[5'G3(T2AG3]-3' DNA assessed as major positive band at 295 nm at 2 mole ligand concentration by CD spectroscopy
Homo sapiens [11] = species on record: Homo sapiens; experiment: Binding affinity to human telomeric d[5'G3(T2AG3]-3' DNA quadruplex assessed as major positive band at 292 nm at 2:1 drug to DNA ratio

Telomerase reverse transcriptase, sequence (O14746 whole entry): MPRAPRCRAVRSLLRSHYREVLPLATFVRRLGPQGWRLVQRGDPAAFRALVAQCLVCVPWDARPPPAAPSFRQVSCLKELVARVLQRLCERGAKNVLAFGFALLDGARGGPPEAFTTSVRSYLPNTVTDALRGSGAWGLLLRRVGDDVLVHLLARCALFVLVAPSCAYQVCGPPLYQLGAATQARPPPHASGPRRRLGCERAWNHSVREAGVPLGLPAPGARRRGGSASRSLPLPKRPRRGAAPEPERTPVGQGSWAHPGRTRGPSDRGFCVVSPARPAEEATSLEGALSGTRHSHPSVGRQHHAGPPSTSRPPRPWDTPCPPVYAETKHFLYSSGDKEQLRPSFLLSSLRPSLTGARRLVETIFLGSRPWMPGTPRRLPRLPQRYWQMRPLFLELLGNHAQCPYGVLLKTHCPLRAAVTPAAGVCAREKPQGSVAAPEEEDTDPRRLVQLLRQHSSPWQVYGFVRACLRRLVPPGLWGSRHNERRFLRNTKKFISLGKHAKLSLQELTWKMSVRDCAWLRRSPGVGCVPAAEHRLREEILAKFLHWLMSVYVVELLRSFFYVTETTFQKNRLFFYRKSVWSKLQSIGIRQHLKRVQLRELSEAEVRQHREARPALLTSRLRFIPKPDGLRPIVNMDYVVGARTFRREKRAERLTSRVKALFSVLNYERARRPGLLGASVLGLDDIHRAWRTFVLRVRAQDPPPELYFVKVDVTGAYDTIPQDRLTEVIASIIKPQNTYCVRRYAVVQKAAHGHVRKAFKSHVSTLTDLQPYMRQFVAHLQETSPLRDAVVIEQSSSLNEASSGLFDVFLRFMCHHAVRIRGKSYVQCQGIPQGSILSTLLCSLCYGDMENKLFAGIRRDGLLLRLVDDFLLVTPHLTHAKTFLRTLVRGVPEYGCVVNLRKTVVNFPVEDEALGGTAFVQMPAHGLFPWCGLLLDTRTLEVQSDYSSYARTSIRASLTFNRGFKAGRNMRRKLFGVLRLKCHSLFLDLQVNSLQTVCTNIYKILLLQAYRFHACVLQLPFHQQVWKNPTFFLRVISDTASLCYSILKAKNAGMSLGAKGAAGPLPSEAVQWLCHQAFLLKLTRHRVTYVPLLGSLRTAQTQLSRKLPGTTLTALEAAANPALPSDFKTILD

| pIC50 [1] | ΔTm (Homo sapiens [2]) | pEC50 [3] | pIC50 [4] | pEC50 [5] | Activity (Homo sapiens [6]) | Activity (Homo sapiens [7]) | Activity (Homo sapiens [8]) | Activity [5] | Activity (Homo sapiens [9]) | Activity (Homo sapiens [10]) | Activity (Homo sapiens [11]) | SMILES |
| --- | --- | --- | --- | --- | --- | --- | --- | --- | --- | --- | --- | --- |
| 5.12 | 28 °C | 7.15 | 4.96 | 6.44 | Active | – | – | – | – | – | – | O=C(CCN1CCCC1)Nc1ccc2c(NCNCCNCNc3c4ccc(NC(=O)CCN5CCCC5)cc4nc4cc(NC(=O)CCN5CCCC5)ccc34)c3ccc(NC(=O)CCN4CCCC4)cc3nc2c1 |
| 5.05 | 20 °C | 6.70 | 4.35 | 5.41 | Active | Dose-dependent effect | inactive | Dose-dependent effect | Active | – | – | O=C(CCN1CCCC1)Nc1ccc2c(NCOCCOCNc3c4ccc(NC(=O)CCN5CCCC5)cc4nc4cc(NC(=O)CCN5CCCC5)ccc34)c3ccc(NC(=O)CCN4CCCC4)cc3nc2c1 |
| 5.40 | 23 °C | 6.07 | 4.77 | 5.35 | Active | – | – | – | – | – | – | O=C(CCN1CCCC1)Nc1ccc2c(NCCCCCCNc3c4ccc(NC(=O)CCN5CCCC5)cc4nc4cc(NC(=O)CCN5CCCC5)ccc34)c3ccc(NC(=O)CCN4CCCC4)cc3nc2c1 |
| 5.27 | 18 °C | 5.74 | 4.20 | 4.72 | – | Dose-dependent effect | – | Dose-dependent effect | – | Active | Active | CN(C)c1ccc(Nc2c3ccc(NC(=O)CCN4CCCC4)cc3nc3cc(NC(=O)CCN4CCCC4)ccc23)cc1 |
